The source made the active and inactive calls.
Experiments:
[1] = molecular target: Mitogen-activated protein kinase 10 (Homo sapiens, UniProt P53779); assay: Dose response biochemical screening assay for inhibitors of c-Jun N-Terminal Kinase 3 (JNK3). [Related pubchem assays: 746 ]
[2] = molecular target: T1, Histone-lysine N-methyltransferase NSD2 (Homo sapiens, UniProt O96028); format: biochemical
T1 sequence (O96028 whole entry): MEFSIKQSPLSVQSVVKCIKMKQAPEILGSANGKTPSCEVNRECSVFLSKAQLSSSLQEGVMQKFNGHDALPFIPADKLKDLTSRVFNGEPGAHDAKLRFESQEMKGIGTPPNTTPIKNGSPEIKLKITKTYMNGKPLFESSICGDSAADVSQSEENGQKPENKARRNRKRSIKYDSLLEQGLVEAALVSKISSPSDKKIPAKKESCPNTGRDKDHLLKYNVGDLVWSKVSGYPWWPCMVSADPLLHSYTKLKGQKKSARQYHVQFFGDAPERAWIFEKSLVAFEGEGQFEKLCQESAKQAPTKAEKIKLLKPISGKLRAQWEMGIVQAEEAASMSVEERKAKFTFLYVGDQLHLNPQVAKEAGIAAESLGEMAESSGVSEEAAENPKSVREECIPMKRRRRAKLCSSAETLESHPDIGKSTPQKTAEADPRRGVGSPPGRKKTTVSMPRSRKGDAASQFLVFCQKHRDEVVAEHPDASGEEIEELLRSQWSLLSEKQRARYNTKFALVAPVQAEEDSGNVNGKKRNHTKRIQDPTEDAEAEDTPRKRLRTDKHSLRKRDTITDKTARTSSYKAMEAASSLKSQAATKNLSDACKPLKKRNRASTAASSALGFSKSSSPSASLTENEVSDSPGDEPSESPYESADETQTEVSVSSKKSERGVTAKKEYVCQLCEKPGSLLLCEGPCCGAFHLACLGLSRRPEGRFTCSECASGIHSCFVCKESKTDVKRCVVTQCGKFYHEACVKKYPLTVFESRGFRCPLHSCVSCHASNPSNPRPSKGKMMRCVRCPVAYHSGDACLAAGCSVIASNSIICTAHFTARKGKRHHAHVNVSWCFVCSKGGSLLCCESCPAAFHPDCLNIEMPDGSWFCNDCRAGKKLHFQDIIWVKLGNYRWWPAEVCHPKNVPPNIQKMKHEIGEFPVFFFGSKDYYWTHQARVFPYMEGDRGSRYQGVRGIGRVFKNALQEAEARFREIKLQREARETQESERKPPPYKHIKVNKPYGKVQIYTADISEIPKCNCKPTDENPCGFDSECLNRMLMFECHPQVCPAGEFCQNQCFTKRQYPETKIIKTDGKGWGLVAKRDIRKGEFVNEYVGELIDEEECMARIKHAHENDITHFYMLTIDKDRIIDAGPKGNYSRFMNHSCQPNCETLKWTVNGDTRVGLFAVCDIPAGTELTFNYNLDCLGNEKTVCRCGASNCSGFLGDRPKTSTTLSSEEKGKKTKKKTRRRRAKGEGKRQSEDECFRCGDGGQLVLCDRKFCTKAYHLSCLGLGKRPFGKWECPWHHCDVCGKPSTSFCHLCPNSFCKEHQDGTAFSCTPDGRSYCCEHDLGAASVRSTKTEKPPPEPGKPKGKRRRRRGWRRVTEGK

[3] = molecular target: Nonstructural protein 1 (Influenza A virus, UniProt Q194T2); format: functional, Influenza A virus (A/California/07/2009(H1N1))
[4] = molecular target: T2, Mucolipin-3 (Homo sapiens, UniProt Q8TDD5); assay: Dose response cell-based high-throughput screening assay for agonists of the transient receptor potential channel ML3 (TRPML3). [Related pubchem assays: 1526, 1424, 1448 ]; format: functional
T2 sequence (Q8TDD5 whole entry): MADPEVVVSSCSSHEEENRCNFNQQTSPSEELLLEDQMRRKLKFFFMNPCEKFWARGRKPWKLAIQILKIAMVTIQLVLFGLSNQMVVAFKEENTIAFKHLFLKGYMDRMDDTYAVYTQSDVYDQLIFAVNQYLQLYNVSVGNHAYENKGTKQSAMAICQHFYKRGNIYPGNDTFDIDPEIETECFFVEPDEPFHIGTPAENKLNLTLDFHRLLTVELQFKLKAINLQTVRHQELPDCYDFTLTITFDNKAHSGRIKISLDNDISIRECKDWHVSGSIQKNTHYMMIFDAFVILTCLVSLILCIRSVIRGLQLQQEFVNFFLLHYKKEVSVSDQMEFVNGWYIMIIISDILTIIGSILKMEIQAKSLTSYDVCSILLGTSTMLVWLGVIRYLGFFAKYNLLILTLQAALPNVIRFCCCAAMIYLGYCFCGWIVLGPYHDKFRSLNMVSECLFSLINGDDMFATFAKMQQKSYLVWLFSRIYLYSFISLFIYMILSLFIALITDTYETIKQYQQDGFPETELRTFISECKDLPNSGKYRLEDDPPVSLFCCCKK

[5] = molecular target: Ion channel NompC (Danio rerio, UniProt Q7T1G6); assay: Fluorescence counterscreen assay for TRPML3 agonists: dose response cell-based high-throughput screening assay to identify agonists of the transient receptor potential channel N1 (TRPN1). [Related pubchem assays: 1526, 1424, 1448 ]; format: functional
[6] = viability of PTEN-deleted HCT116 cells – cell-based, HCT116 PTEN knockout, dose response (AID 1047); format: functional;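 also: HCT116 colon tumor cells with PTEN knocked out; cells exposed to compound for 60 hours before readout; potency for loss of cell viability measured by luminescence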
[7] = molecular target: T3, Replicative DNA helicase DnaB (Mycobacterium tuberculosis, UniProt P9WMR3); assay: DnaB intein splicing inhibitors, dose response, biochemical, cell-free fluorescence (AID 449749); format: functional
T3 sequence (P9WMR3 whole entry): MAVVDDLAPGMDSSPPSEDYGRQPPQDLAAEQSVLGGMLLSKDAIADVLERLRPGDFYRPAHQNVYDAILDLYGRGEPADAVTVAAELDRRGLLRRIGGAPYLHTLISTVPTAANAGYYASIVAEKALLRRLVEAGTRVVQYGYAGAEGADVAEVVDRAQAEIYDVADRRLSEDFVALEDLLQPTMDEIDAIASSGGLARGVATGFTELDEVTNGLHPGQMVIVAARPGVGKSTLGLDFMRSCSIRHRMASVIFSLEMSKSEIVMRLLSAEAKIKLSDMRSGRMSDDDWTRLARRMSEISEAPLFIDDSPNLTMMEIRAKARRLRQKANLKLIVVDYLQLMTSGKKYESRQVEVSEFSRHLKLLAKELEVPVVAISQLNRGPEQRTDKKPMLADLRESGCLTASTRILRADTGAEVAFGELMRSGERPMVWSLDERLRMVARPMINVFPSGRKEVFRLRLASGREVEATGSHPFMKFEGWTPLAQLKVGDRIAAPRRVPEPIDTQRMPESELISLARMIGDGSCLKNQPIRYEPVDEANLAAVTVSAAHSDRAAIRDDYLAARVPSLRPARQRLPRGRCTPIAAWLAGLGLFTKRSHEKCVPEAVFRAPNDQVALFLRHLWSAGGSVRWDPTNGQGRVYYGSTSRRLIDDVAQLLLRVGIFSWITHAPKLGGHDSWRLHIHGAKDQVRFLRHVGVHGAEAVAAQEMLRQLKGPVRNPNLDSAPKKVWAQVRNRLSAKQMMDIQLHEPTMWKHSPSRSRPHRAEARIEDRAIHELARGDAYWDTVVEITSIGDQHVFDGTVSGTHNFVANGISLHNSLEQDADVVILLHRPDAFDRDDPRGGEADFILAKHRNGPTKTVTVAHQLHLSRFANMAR

[8] = viability of HCT116 lacking mutant beta-catenin – cell-based, human colon tumor, dose response (AID 1045); format: functional;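 also: HCT116 colon tumor cells with beta catenin knocked out; cells exposed to compound for 60 hours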
[9] = molecular target: T4, Protein RecA (Mycobacterium tuberculosis, UniProt P9WHJ3); assay: Fluorescence Cell-Free Homogeneous Dose Retest to Identify Inhibitors of RecA-Intein Splicing Activity. [Related pubchem assays (depositor defined):AID2097, AID2223, AID489010, AID492950]; format: functional
T4 sequence (P9WHJ3 whole entry): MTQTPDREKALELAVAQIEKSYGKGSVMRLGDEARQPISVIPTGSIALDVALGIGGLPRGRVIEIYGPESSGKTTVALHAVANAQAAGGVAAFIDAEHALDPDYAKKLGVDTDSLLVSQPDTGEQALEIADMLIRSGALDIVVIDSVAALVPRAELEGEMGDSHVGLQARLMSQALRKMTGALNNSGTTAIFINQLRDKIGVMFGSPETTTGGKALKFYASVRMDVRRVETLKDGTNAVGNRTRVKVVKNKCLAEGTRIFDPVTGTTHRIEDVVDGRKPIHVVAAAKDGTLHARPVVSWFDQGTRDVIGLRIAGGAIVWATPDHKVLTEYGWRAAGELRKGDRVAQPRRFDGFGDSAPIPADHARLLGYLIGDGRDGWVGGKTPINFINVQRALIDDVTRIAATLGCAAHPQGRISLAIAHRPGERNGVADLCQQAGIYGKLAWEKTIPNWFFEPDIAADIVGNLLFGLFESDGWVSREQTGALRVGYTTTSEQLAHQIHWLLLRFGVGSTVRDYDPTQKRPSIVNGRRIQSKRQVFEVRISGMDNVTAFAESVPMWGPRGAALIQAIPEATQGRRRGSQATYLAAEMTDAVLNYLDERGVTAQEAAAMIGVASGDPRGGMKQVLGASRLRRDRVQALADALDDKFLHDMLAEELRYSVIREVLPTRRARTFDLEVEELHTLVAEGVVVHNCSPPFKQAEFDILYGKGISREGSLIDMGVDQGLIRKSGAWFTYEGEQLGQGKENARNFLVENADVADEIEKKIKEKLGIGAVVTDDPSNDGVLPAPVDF

[10] = viability loss in THP-1 monocytes – THP-1 cells, cytotoxicity control for Vif-APOBEC3G degradation inhibitor project, dose response (AID 1117359); format: functional; conditions: THP-1
[11] = molecular target: T5, Glutathione-S-transferase (Schistosoma japonicum, UniProt Q26513); assay: GST-antibody interaction or FRET quenching – biochemical, TR-FRET, artefact control for Vif-APOBEC3G degradation inhibitor project, dose response (AID 1117362); format: functional
T5 sequence (Q26513 whole entry): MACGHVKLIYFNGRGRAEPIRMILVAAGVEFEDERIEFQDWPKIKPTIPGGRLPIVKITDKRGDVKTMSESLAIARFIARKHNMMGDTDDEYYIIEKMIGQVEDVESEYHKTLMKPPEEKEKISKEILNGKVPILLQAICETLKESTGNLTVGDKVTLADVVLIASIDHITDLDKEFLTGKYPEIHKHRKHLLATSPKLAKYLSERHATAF

[12] = molecular target: NS3 (Hepatitis C virus, UniProt A3EZJ3); assay: PubChem AID 2173; parameters: species or system Hepacivirus hominis
[13] = molecular target: T6, Short transient receptor potential channel 4 (Mus musculus, UniProt Q9QUQ5); assay: block of DAMGO-driven TRPC4 calcium entry – cell-based, HEK293 TRPC4/mu-opioid, Fluo-4 calcium, dose response (AID 434942); format: functional;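 also: potency of inhibitors blocking the TRPC4 calcium response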
T6 sequence (Q9QUQ5 whole entry): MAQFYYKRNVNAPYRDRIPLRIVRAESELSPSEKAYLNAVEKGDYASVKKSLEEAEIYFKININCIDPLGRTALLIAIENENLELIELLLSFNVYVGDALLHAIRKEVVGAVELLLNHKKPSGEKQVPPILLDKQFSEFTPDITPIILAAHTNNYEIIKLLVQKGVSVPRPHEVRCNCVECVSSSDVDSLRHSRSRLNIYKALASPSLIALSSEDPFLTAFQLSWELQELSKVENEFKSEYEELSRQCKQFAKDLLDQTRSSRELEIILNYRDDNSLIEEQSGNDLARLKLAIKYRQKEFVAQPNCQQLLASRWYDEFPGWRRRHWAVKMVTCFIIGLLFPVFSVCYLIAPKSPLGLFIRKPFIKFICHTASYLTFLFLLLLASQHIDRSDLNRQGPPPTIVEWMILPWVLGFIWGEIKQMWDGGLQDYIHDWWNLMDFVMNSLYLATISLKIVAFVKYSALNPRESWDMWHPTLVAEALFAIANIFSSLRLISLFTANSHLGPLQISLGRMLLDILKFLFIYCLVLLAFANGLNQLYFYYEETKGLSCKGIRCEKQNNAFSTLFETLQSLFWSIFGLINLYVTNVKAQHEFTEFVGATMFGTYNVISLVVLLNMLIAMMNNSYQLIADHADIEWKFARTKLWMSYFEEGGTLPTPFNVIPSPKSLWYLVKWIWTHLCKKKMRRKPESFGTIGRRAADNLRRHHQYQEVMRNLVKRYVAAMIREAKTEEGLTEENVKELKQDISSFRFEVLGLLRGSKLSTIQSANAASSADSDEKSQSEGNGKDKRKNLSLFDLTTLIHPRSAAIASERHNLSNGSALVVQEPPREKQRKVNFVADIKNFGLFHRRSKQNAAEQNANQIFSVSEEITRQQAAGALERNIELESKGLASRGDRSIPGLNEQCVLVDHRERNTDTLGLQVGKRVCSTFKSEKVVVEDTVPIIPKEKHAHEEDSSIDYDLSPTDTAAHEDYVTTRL

Ion channel NompC, sequence (Q7T1G6 whole entry): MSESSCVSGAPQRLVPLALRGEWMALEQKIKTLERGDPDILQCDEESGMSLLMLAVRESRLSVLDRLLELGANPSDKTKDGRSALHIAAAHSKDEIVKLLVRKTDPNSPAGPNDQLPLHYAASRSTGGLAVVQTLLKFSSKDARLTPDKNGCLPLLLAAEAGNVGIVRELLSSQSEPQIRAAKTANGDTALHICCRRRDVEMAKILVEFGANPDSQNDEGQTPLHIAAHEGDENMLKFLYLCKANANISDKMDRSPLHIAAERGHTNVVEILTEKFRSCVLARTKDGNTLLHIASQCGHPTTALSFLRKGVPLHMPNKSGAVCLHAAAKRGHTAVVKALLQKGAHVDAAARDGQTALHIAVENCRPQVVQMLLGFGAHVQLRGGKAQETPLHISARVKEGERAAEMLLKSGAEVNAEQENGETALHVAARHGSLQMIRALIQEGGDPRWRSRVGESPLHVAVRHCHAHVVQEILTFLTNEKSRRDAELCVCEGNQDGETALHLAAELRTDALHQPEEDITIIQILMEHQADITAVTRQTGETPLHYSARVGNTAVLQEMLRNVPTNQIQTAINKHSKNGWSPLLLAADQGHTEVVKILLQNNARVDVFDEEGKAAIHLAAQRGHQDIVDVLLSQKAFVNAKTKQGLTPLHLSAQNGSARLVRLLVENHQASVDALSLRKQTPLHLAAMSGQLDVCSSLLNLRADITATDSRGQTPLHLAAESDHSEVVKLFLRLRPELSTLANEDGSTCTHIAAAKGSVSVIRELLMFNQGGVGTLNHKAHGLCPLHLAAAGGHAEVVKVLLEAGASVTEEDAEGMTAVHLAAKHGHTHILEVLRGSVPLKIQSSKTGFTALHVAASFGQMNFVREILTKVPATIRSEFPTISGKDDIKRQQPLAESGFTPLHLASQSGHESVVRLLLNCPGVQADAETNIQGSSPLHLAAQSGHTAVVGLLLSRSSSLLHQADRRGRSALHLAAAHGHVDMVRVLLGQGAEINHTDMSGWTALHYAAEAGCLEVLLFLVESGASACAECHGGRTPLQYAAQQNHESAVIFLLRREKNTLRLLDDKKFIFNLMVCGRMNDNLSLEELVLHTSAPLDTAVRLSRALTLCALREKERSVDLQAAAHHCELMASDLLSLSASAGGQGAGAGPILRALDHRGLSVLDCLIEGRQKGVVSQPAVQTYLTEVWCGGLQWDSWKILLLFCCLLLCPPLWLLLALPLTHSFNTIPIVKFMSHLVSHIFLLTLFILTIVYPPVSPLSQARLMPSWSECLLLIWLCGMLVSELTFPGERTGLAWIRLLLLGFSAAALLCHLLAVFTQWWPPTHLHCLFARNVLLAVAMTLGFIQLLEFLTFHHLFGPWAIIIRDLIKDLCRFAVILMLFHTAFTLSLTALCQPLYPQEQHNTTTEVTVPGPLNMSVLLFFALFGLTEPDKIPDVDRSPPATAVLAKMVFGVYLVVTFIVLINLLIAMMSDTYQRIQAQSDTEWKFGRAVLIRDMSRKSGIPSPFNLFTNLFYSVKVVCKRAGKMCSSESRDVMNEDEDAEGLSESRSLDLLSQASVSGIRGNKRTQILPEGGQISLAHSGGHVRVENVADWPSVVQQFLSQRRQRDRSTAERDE
Mitogen-activated protein kinase 10, sequence (P53779 whole entry): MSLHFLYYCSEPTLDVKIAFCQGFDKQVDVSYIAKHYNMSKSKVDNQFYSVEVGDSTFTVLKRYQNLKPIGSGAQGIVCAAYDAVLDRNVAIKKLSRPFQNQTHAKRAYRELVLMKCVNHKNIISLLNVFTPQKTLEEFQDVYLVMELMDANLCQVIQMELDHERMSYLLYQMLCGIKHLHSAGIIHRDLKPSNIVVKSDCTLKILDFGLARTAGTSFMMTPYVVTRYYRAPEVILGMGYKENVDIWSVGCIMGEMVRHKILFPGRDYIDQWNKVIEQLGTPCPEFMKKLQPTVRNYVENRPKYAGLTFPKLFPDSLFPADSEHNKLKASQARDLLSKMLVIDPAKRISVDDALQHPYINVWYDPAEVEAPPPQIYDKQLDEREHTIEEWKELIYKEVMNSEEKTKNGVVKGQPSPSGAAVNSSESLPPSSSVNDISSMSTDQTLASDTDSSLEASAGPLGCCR
Nonstructural protein 1, sequence (Q194T2 whole entry): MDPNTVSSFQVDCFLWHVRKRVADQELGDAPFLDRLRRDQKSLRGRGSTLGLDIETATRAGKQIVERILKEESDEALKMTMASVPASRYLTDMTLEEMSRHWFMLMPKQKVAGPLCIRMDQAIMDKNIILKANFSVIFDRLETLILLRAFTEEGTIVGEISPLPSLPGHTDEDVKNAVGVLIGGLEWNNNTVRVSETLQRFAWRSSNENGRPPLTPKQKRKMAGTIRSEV
NS3, sequence (A3EZJ3 whole entry): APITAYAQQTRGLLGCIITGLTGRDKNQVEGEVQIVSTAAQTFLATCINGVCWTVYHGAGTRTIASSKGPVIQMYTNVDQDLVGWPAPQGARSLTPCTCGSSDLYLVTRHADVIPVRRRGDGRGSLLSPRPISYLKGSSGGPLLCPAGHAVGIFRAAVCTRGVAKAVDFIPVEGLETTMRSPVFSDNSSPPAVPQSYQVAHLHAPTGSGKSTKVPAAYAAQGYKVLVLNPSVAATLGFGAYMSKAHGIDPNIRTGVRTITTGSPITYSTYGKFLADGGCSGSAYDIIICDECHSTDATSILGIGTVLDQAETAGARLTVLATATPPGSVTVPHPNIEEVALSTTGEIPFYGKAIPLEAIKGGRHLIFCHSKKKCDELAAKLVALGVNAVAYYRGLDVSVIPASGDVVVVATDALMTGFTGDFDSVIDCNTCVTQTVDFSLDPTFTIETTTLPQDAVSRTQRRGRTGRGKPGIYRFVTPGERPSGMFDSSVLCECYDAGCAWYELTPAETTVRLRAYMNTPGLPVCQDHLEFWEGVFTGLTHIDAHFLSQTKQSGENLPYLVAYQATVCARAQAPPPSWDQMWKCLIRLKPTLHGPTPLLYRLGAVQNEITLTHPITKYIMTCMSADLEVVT

CC1CCc2nc(N)c(C#N)c(-c3ccncc3)c2C1 (centres undefined)
IC50 [1]: > 93.1 µM (not active)

Cc1[nH]c(=O)[nH]c1C(=O)CCCCC(=O)OCC(=O)Nc1ccccn1
AC50 [2]: 1.26 µM (active) | IC50 [1]: > 93.1 µM (not active) | IC50 [3]: 1.98 µM (active)

O=S(=O)(c1ccc(Cl)cc1Br)N1CCCCC1
EC50 [4]: > 29.9 µM (not active) | EC50 [5]: > 29.9 µM (not active)

CC[n+]1c(/C=C2\C=C(C)CC(C)(C)C2)sc2ccccc21
EC50 [6]: 11.7 µM (active) | AC50 [7]: > 380 µM (inactive) | EC50 [8]: 9.81 µM (active) | EC50 [9]: 27.3 µM (active) | CC50 [10]: 4.22 µM (active) | IC50 [11]: > 100 µM (active)

COc1ccc(S(=O)(=O)NC2CCCC2)c(Cl)c1Cl
EC50 [4]: 3.55 µM (active) | EC50 [5]: > 29.9 µM (not active)

O=C(Nc1nc(-c2ccc3ccccc3c2)cs1)C1CCN(S(=O)(=O)c2cccs2)CC1
EC50 [4]: 14.2 µM (not active) | EC50 [5]: > 29.9 µM (not active)

CCCOc1ccc(-c2nc(SCc3ccccc3)[nH]c(=O)c2C#N)cc1OC
IC50 [12]: 1.72 µM (active) | EC50 [13]: 4.73 µM (active) | AC50 [2]: > 20 µM (inactive)

From ChEMBL document CHEMBL1201862, “PubChem BioAssay data set” (2004)
